# Test results taken from ChEMBL document CHEMBL5360655, “Design, Synthesis, and Biological Evaluation of Novel P2X7 Receptor Antagonists for the Treatment of Septic Acute Kidney Injury” (J Med Chem, 2023).
# The source made the active and inactive calls. No cut-off for these calls is given here.
# Key:
# P2X purinoceptor 7 [1] = target: T1, P2X purinoceptor 7 (Homo sapiens, UniProt Q99572); experiment: Antagonist activity at human P2X7 receptor
# T1 sequence (Q99572 whole entry): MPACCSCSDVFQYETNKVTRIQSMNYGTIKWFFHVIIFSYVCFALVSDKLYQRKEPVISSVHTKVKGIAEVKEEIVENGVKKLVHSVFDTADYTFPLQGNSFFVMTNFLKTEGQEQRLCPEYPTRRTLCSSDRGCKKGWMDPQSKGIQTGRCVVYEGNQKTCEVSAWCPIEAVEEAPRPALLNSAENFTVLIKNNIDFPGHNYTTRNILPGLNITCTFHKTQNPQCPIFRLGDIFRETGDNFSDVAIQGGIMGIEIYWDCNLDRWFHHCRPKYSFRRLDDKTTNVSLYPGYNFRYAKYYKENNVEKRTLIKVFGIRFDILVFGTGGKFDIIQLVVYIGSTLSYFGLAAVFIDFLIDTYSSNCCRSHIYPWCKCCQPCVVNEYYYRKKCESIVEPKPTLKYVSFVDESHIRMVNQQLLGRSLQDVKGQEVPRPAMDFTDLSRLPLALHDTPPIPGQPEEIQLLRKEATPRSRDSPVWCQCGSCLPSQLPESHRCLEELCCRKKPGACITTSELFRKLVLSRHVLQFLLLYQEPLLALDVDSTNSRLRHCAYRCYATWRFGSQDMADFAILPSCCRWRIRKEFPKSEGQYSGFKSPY
# [2] = target: T2, P2X purinoceptor 7 (Homo sapiens) (UniProt Q99572); experiment: Antagonist activity at human P2X7 receptor expressed in HEK293 cells assessed as inhibition of ATP-induced receptor pore formation at 1 uM by propidium iodide dye uptake based fluorescence analysis; type: cell-based; details: filed as antagonist
# T2 sequence (whole entry): T1 sequence (Q99572 whole entry)
# [3] = target: T3, P2X purinoceptor 7 (Mus musculus) (UniProt Q9Z1M0); experiment: Antagonist activity at mouse P2X7 receptor expressed in HEK293 cells assessed as inhibition of ATP-induced receptor pore formation at 1 uM by propidium iodide dye uptake based fluorescence analysis; type: cell-based; details: filed as antagonist
# T3 sequence (whole entry): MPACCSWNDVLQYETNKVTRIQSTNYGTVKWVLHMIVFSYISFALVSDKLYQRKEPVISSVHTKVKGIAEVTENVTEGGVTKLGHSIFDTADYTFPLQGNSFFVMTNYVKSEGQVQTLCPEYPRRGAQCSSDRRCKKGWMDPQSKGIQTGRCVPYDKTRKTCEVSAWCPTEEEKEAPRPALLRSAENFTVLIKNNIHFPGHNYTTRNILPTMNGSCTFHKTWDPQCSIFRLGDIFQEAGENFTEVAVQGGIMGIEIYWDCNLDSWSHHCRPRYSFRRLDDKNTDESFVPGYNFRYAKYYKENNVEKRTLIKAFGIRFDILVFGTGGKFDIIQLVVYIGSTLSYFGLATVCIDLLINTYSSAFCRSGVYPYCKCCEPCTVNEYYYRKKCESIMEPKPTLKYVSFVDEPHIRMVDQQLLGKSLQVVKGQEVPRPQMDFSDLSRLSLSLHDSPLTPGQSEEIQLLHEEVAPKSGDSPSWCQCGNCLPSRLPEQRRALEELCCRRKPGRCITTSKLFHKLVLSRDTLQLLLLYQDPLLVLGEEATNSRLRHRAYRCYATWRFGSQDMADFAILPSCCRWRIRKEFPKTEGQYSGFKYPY
# [4] = target: T2, P2X purinoceptor 7 (Homo sapiens); experiment: Antagonist activity at human P2X7 receptor expressed in HEK293 cells assessed as inhibition of ATP-induced receptor pore formation at 200 nM by propidium iodide dye uptake based fluorescence analysis; type: cell-based
# [5] = target: T3, P2X purinoceptor 7 (Mus musculus); experiment: Antagonist activity at mouse P2X7 receptor expressed in HEK293 cells assessed as inhibition of ATP-induced receptor pore formation at 200 nM by propidium iodide dye uptake based fluorescence analysis; type: cell-based; details: filed as antagonist
# P2X purinoceptor 7 [6] = target: T1, P2X purinoceptor 7; experiment: Antagonist activity at human P2X7 receptor expressed in HEK293 cells assessed as inhibition of ATP-induced receptor pore formation by propidium iodide dye uptake based fluorescence analysis; type: cell-based
# P2X purinoceptor 7 [7] = target: T4, P2X purinoceptor 7 (Mus musculus, UniProt Q9Z1M0); experiment: Antagonist activity at mouse P2X7 receptor expressed in HEK293 cells assessed as inhibition of ATP-induced receptor pore formation by propidium iodide dye uptake based fluorescence analysis; type: cell-based
# T4 sequence (Q9Z1M0 whole entry): T3 sequence (whole entry)
# [8] = Intrinsic clearance in human liver microsomes; type: ADME, Microsome; details: read-out: CLH
# [9] = Half life in human liver microsomes; type: ADME, Microsome
# [10] = Intrinsic clearance in mouse liver microsomes; type: ADME, Microsome; details: read-out: CLH
# [11] = Half life in mouse liver microsomes; type: ADME, Microsome
# HEK293 [12] = experiment: Cytotoxicity against human HEK293 cells transfected with human P2X7 receptor assessed as effect on cell viability at 1 to 4 uM incubated for 2 hrs by CCK8 assay; type: toxicity, cell-based; details: hek293, 2 h, dose 1-4 µM
# HEK293 [13] = experiment: Cytotoxicity against human HEK293 cells transfected with mouse P2X7 receptor assessed as effect on cell viability at 1 to 4 uM incubated for 2 hrs by CCK8 assay; type: toxicity, cell-based; details: hek293, 2 h, dose 1-4 µM
# P2X purinoceptor 7 [14] = target: T1, P2X purinoceptor 7; experiment: Antagonist activity at P2X7 receptor in human THP-1 cells assessed as inhibition of ATP-induced IL-1beta secretion pretreated with LPS for 3 hrs followed by incubation with compound for 40 mins followed by treatment with ATP for 1 hr by ELISA; type: cell-based
# THP-1 = experiment: Cytotoxicity against human THP-1 cells assessed as effect on cell viability at 1 to 4 uM incubated for 2 hrs by CCK8 assay; type: toxicity, cell-based; details: thp-1, 2 h, dose 1-4 µM
# [15] = AUC(0 to t) in BALB/c mouse at 10 mg/kg, iv measured for 24 hrs by LC-MS/MS analysis; type: ADME, organism-based; parameters: time 24 hrs, dose 10 mg/kg, route iv; details: in vivo
# [16] = AUC(0 to t) in BALB/c mouse at 10 mg/kg, po measured for 24 hrs by LC-MS/MS analysis; type: ADME, organism-based; parameters: time 24 hrs, dose 10 mg/kg, route po; details: in vivo
# [17] = Clearance in BALB/c mouse at 10 mg/kg, iv measured for 24 hrs by LC-MS/MS analysis; type: ADME, organism-based; details: in vivo
# [18] = Clearance in BALB/c mouse at 10 mg/kg, po measured for 24 hrs by LC-MS/MS analysis; type: ADME, organism-based; details: in vivo
# [19] = Cmax in BALB/c mouse at 10 mg/kg, iv measured for 24 hrs by LC-MS/MS analysis; type: ADME, organism-based; parameters: time 24 hrs, dose 10 mg/kg, route iv; details: in vivo
# [20] = Cmax in BALB/c mouse at 10 mg/kg, po measured for 24 hrs by LC-MS/MS analysis; type: ADME, organism-based; parameters: time 24 hrs, dose 10 mg/kg, route po; details: in vivo
# [21] = Half life in BALB/c mouse at 10 mg/kg, iv measured for 24 hrs by LC-MS/MS analysis; type: ADME, organism-based; details: in vivo
# [22] = Half life in BALB/c mouse at 10 mg/kg, po measured for 24 hrs by LC-MS/MS analysis; type: ADME, organism-based; details: in vivo
# [23] = Tmax in BALB/c mouse at 10 mg/kg, iv measured for 24 hrs by LC-MS/MS analysis; type: ADME, organism-based; details: in vivo
# [24] = Tmax in BALB/c mouse at 10 mg/kg, po measured for 24 hrs by LC-MS/MS analysis; type: ADME, organism-based; details: in vivo
# [25] = Oral bioavailability in BALB/c mouse at 10 mg/kg measured for 24 hrs by LC-MS/MS analysis; type: ADME, organism-based; details: in vivo
# [26] = AUC(0 to t) in BALB/c mouse at 10 mg/kg, ip measured for 24 hrs by LC-MS/MS analysis; type: ADME, organism-based; parameters: dose 10 mg/kg, time 24 hrs, route ip; details: in vivo
# [27] = Clearance in BALB/c mouse at 10 mg/kg, ip measured for 24 hrs by LC-MS/MS analysis; type: ADME, organism-based; details: in vivo
# [28] = Cmax in BALB/c mouse at 10 mg/kg, ip measured for 24 hrs by LC-MS/MS analysis; type: ADME, organism-based; parameters: dose 10 mg/kg, time 24 hrs, route ip; details: in vivo
# [29] = Half life in BALB/c mouse at 10 mg/kg, ip measured for 24 hrs by LC-MS/MS analysis; type: ADME, organism-based; details: in vivo
# [30] = Tmax in BALB/c mouse at 10 mg/kg, ip measured for 24 hrs by LC-MS/MS analysis; type: ADME, organism-based; details: in vivo
# Mus musculus [31] = experiment: Reno-protective activity against LPS-induced acute kidney injury C57BL/6J mouse model assessed as decrease in serum […] level at 10 mg/kg, ip administered twice at 30 mins prior to LPS challenge and 8 hrs post-LPS challenge and measured at 16 hrs post-LPS challenge; type: functional, organism-based; details: time 16.5 hrs
# Mus musculus [32] = experiment: Reno-protective activity against LPS-induced acute kidney injury C57BL/6J mouse model assessed as decrease in BUN level at 10 mg/kg, ip administered twice at 30 mins prior to LPS challenge and 8 hrs post-LPS challenge and measured at 16 hrs post-LPS challenge; type: functional, organism-based; details: time 16.5 hrs
# P2X purinoceptor 7 [33] = target: T4, P2X purinoceptor 7; experiment: Antagonist activity at mouse P2X7 receptor
IC50 (P2X purinoceptor 7 [1]) [µM],inhibition [2] [%],inhibition [3] [%],inhibition [5] [%],IC50 (P2X purinoceptor 7 [6]) [µM],IC50 (P2X purinoceptor 7 [7]) [µM],CLint scaled [8] [mL/min/kg],half-life [9] [h],CLint scaled [10] [mL/min/kg],half-life [11] [h],IC50 (P2X purinoceptor 7 [14]) [µM],AUC(0-t) at 24 h [15] [ng·h/mL],AUC(0-t) at 24 h [16] [ng·h/mL],clearance [17] [mL/min/kg],CL/F [18] [mL/min/kg],Cmax [19] [ng/mL],Cmax [20] [ng/mL],SMILES,Activity (HEK293 [12]),Activity (HEK293 [13]),Activity (THP-1),further results
0.2,–,–,–,–,–,–,–,–,–,–,–,–,–,–,–,–,O=C(NCc1ccc(Cl)cc1Cl)C1CCC(=O)N1c1ccoc1 (configuration not stated),–,–,–,–
–,68,99.5,105,0.147,0.0362,< 12,> 2,< 12,> 2,0.358,5080,4390,33.2,40.8,3040,776,CS(=O)(=O)c1ccc(-c2nc(C(=O)NCc3cn(-c4cc(Cl)ccn4)nn3)cs2)cc1,Non-Toxic,Non-Toxic,Non-Toxic,inhibition ([4]; filed as antagonist): 42.1%; half-life [21]: 1.96 h; half-life [22]: 2.29 h; Tmax [23]: 4.8 min; Tmax [24]: 2 h; bioavailability [25]: 86.4%; AUC(0-t) at 24 h [26]: 9930 ng·h/mL; CL/F [27]: 16.9 mL/min/kg; Cmax [28]: 3650 ng/mL; half-life [29]: 3.94 h; Tmax [30]: 0.38 h; Activity (Mus musculus [31]): Active; Activity (Mus musculus [32]): Active
1.1,–,–,–,–,–,–,–,–,–,–,–,–,–,–,–,–,O=C1C=C(n2cc(CCCl)nn2)C(=O)c2c(O)cccc21,–,–,–,IC50 (P2X purinoceptor 7 [33]): 1.5 µM
–,53.6,100,101,0.297,0.0269,< 12,> 2,< 12,> 2,0.635,77900,29100,2,5.83,25800,6500,CS(=O)(=O)c1ccc(-c2ncc(C(=O)NCc3cn(-c4cc(Cl)ccn4)nn3)s2)cc1,Non-Toxic,Non-Toxic,Non-Toxic,inhibition [4]: 38.2%; half-life [21]: 4.94 h; half-life [22]: 2.1 h; Tmax [23]: 4.8 min; Tmax [24]: 2 h; bioavailability [25]: 37.3%; AUC(0-t) at 24 h [26]: 12000 ng·h/mL; CL/F [27]: 13.5 mL/min/kg; Cmax [28]: 1470 ng/mL; half-life [29]: 3.98 h; Tmax [30]: 4.67 h; Activity (Mus musculus [31]): Active; Activity (Mus musculus [32]): Active
